From ChEMBL document CHEMBL6078692, “Discovery of PF-07265028, A Selective Small Molecule Inhibitor of Hematopoietic Progenitor Kinase 1 (HPK1) for the Treatment of Cancer” (J Med Chem, 2024)
Converted amounts (≈) assume the structure as drawn.

What was measured:
[1] = Induction of IL-2 production in human T cells pretreated for 30 mins followed by anti-CD3/CD28 stimulation for 24 hrs by MSD analysis; assay type: functional, cell-based; settings: T-cell
[2] = Lipophilicity, logD of compound in octanol/water by shake flask method; assay type: physicochemical
[3] = molecular target: Mitogen-activated protein kinase kinase kinase kinase 1 (Homo sapiens, UniProt Q92918); assay: Inhibition of full-length recombinant human HPK1 (1 to 182 residues) extracted from baculovirus infected Sf21 cells using phospho-acceptor peptide as substrate incubated for 15 mins in presence of ATP by fluorescence based assay
Chain of Mitogen-activated protein kinase kinase kinase kinase 1 (Q92918 whole entry, the tested form may be a part): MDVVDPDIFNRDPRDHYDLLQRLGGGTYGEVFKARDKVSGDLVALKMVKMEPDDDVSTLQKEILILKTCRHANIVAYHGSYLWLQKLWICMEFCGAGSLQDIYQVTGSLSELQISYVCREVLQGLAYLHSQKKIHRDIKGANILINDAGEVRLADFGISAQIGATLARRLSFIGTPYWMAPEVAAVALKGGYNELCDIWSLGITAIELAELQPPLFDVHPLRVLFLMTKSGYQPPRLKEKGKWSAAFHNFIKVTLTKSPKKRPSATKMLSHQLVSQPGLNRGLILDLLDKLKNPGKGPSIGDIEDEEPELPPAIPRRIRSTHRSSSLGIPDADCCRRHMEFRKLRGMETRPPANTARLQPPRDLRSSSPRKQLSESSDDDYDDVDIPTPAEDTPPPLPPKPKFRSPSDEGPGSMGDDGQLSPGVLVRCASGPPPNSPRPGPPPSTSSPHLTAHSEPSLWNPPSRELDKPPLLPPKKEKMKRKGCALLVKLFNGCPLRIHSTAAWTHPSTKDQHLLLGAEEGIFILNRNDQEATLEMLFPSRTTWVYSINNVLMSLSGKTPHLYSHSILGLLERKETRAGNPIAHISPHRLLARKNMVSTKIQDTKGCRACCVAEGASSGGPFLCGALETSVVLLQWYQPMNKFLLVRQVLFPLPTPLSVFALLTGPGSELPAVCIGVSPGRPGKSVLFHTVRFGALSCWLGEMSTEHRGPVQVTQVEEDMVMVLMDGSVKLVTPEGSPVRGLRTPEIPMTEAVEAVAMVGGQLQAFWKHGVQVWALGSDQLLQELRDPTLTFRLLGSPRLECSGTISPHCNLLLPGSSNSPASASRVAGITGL

[4] = Selectivity ratio of IC50 for cytotoxicity against PBMC (unknown origin) assessed as inhibition of ATP level incubated for 3 days by Cell Titer Glo assay to IC50 for inhibition of SLP76 phosphorylation at Ser376 in human Jurkat cells incubated for 30 mins by HTRF assay; assay type: toxicity, cell-based; settings: read-out: Ratio IC50
[5] = Cytotoxicity against PBMC (unknown origin) assessed as inhibition of ATP level incubated for 3 days by Cell Titer Glo assay; assay type: toxicity, cell-based
[6] = Kinetic solubility of compound at pH 7.4 incubated for 24 hrs by MS/MS analysis; assay type: physicochemical; settings: buffer, read-out: Kinetic_solubility
[7] = Intrinsic clearance in human hepatocytes measured per million cells at 1 uM measured for 240 mins by LC-MS/MS analysis; assay type: ADME, cell-based, Hepatocyte; settings: read-out: CLH
[8] = Permeability in RRCK cells; assay type: ADME, cell-based, Canis lupus familiaris, MDCKII-LE; settings: dog, MDCK; read-out: permeability
Homo sapiens = species on record: Homo sapiens; assay: Selectivity ratio of Ki for N-terminal 6xHis-tagged human recombinant full-length LCK to Ki for full-length recombinant human HPK1 (1 to 182 residues) expressed in baculovirus infected Sf21 cells
[9] = Stability in human plasma assessed as half life measured for 120 mins by LC-MS/MS analysis; assay type: ADME, cell-free
[10] = Volume of distribution at steady state in mouse at 15 mg/kg, po or 1 mg/kg, iv; assay type: ADME, organism-based; settings: in vivo
[11] = Oral bioavailability in monkey at 1 mg/kg, po; assay type: ADME, organism-based, Macaca mulatta; settings: rhesus monkey, in vivo
[12] = Tmax in mouse at 15 mg/kg, po or 1 mg/kg, iv; assay type: ADME, organism-based; settings: in vivo
[13] = Unbound clearance in monkey at 1 mg/kg, po or 0.5 mg/kg, iv; assay type: ADME, organism-based, Macaca mulatta; settings: rhesus monkey, in vivo
[14] = Terminal half life in mouse at 15 mg/kg, po or 1 mg/kg, iv; assay type: ADME, organism-based; settings: in vivo, read-out: beta t1/2 (converted)
[15] = Terminal half life in monkey at 1 mg/kg, po or 0.5 mg/kg, iv; assay type: ADME, organism-based, Macaca mulatta; settings: rhesus monkey, in vivo, read-out: beta t1/2 (converted)
[16] = Clearance in monkey at 1 mg/kg, po or 0.5 mg/kg, iv; assay type: ADME, organism-based, Macaca mulatta; settings: rhesus monkey, in vivo
[17] = Unbound clearance in mouse at 15 mg/kg, po or 1 mg/kg, iv; assay type: ADME, organism-based; settings: in vivo
[18] = Tmax in monkey at 1 mg/kg, po or 0.5 mg/kg, iv; assay type: ADME, organism-based, Macaca mulatta; settings: rhesus monkey, in vivo
[19] = Volume of distribution at steady state in monkey at 1 mg/kg, po or 0.5 mg/kg, iv; assay type: ADME, organism-based, Macaca mulatta; settings: rhesus monkey, in vivo
[20] = Oral bioavailability in mouse at 15 mg/kg, po; assay type: ADME, organism-based; settings: in vivo
[21] = Clearance in mouse at 15 mg/kg, po or 1 mg/kg, iv; assay type: ADME, organism-based; settings: in vivo

Structure (SMILES)	EC50 [1]	logD [2]	IC50 [3]	selectivity ratio at 3 days [4]	IC50 at 3 days [5]	hepatocyte CLint at 1 µM [7]	Papp [8]	Ratio Ki (Homo sapiens)	other results
CNCc1nc(N(C)C(C)C)cc2c1CN(c1cccc(-c3nnc4n3[C@@H](C)CC4)n1)C2=O	47 nM	1.9	< 0.05 nM	11	500 nM				
CNCc1cc(OC)cc2c1CN(c1cccc(-c3nncn3C(C)C)n1)C2=O		1.1	1.1 nM	5	1700 nM	10 µL/min/1e6 cells	27 ×10⁻⁶ cm/s	> 470	solubility kinetic at 24 h [6]: 495 µM (≈ 194 µg/mL)
CCCn1cnnc1-c1cccc(N2Cc3c(cc(N(C)C(C)C)nc3CNC)C2=O)n1	74 nM	2	< 0.13 nM	24	2100 nM	15 µL/min/1e6 cells	19.3 ×10⁻⁶ cm/s		
CNCc1nc(N(C)C(C)C)cc2c1CN(c1cccc(-c3nnc4n3[C@@H](CF)CC4)n1)C2=O	64 nM	1.6	0.07 nM	25	1300 nM				
CC[C@H](C)n1cnnc1-c1cccc(NC(=O)c2cccc3c2nc(CN)n3C)n1		2	2.7 nM					37	half-life [9]: 2.1 h
CCCn1cnnc1-c1cccc(N2Cc3c(cc(N(C)C)nc3CNC)C2=O)n1	97 nM	1	0.27 nM	29	3500 nM	5.2 µL/min/1e6 cells	17.7 ×10⁻⁶ cm/s		
CCC(C)n1cnnc1-c1cccc(NC(=O)c2cccc3c2OCC(N)C3)n1 (stereo not drawn)		1.7	2.2 nM					> 230	half-life [9]: 3.38 h
CNCc1cc(OC)cc2c1CN(c1cccc(-c3nncn3[C@@H](C)CC(F)(F)F)n1)C2=O		1.6	0.3 nM	4	487 nM	11 µL/min/1e6 cells	20.4 ×10⁻⁶ cm/s	210	solubility kinetic at 24 h [6]: 202 µM (≈ 93 µg/mL)
CCCn1c(C)nnc1-c1cccc(N2Cc3c(cc(N(C)C(C)C)nc3CNC)C2=O)n1	154 nM	2	< 0.17 nM	> 41	> 3300 nM				
CC[C@@H](N)c1nc(N2CCC[C@H]2C)cc2c1CN(c1cccc(-c3nnc4n3[C@@H](C)CC4)n1)C2=O	59 nM	2.5			800 nM	56 µL/min/1e6 cells	8.3 ×10⁻⁶ cm/s		Vdss [10]: 4.9 L/kg; bioavailability [11]: 20%; Tmax [12]: 2 h; solubility kinetic at 24 h [6]: 260 µM (≈ 123 µg/mL); CL free [13]: 143 mL/min/kg; half-life [14]: 3.3 h; half-life [15]: 4.3 h; clearance [16]: 14 mL/min/kg; CL free [17]: 690 mL/min/kg; Tmax [18]: 1 h; Vdss [19]: 3.7 L/kg; bioavailability [20]: 38%; clearance [21]: 39 mL/min/kg
COc1ccc(CC#N)cc1C(=O)Nc1cccc(-c2nncn2C(C)C)n1		2.3	14 nM					6	
C[C@@H]1CCCN1c1cc2c(c([C@@H](C)N)n1)CN(c1cccc(-c3nnc4n3[C@@H](C)CC4)n1)C2=O	62 nM	2.3	< 0.05 nM	21	1100 nM				
CC(C)n1cnnc1-c1cccc(N2Cc3c(CO)cccc3C2=O)n1		2.1	22 nM					> 13	solubility kinetic at 24 h [6]: < 0.1 µM
CC(C)n1cnnc1-c1cccc(NC(=O)c2cccc3c2nc(CN)n3C)n1		1.7	10 nM					> 45	
COc1ccc2c(c1CN)CN(c1cccc(-c3nncn3[C@@H](C)CC(F)(F)F)n1)C2=O		0.7	2.5 nM			< 2.3 µL/min/1e6 cells	2.9 ×10⁻⁶ cm/s	> 140	solubility kinetic at 24 h [6]: 372 µM (≈ 166 µg/mL)
CCCn1cnnc1-c1cccc(N2Cc3c(cc(N4CCC[C@H]4C)nc3CNC)C2=O)n1	38 nM	2.1	< 0.06 nM	32	1100 nM	23 µL/min/1e6 cells	15.1 ×10⁻⁶ cm/s		
CC(C)n1cnnc1-c1cccc(N2Cc3c(CN)cccc3C2=O)n1		0.7	194 nM					> 3	half-life [9]: > 6 h; solubility kinetic at 24 h [6]: > 600 µM
CNCc1nc(N(C)C)cc2c1CN(c1cccc(-c3nncn3C(C)C)n1)C2=O		0.8	0.15 nM					1600	
CC[C@@H](N)c1nc(N2CCC[C@H]2C)cc2c1CN(c1cccc(-c3nncn3CC)n1)C2=O	142 nM	2.3	< 0.09 nM	42	2200 nM				
CNCc1nc(N(C)C)cc2c1CN(c1cccc(-c3nncn3[C@@H](C)CC(F)(F)F)n1)C2=O		1.3	< 0.05 nM					> 260	
CC(C)n1cnnc1-c1cccc(NC(=O)c2cccc3c2OCC(N)C3)n1 (stereo not drawn)		1.2	7.7 nM					> 65	
CC[C@H]1CCc2nnc(-c3cccc(N4Cc5c(cc(N(C)C(C)C)nc5CNC)C4=O)n3)n21	116 nM	2.2	< 0.06 nM	13	500 nM				
